Measurements published in PubChem BioAssay AID1645865 (Buhrlage Lab, Dana-Farber Cancer Institute and Novartis …, 2021).
Active and inactive are the calls of the source.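 How the source made its calls: active means maximal inhibition of the USP30 enzyme reaching 30% or more across the dose series; inactive means the rest.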

Each molecule was assayed against Ubiquitin carboxyl-terminal hydrolase 30 (Homo sapiens) (UniProt Q70CQ3) (assay: inhibitors of ubiquitin-specific protease 30 deubiquitylating enzyme, concentration dependence, in vitro biochemical, validation of primary hits (AID 1645865)). Details: purified USP30, Ub-rhodamine cleavage, fluorescence, 2 h.
Ubiquitin carboxyl-terminal hydrolase 30 (Homo sapiens), sequence (Q70CQ3 whole entry, looked up): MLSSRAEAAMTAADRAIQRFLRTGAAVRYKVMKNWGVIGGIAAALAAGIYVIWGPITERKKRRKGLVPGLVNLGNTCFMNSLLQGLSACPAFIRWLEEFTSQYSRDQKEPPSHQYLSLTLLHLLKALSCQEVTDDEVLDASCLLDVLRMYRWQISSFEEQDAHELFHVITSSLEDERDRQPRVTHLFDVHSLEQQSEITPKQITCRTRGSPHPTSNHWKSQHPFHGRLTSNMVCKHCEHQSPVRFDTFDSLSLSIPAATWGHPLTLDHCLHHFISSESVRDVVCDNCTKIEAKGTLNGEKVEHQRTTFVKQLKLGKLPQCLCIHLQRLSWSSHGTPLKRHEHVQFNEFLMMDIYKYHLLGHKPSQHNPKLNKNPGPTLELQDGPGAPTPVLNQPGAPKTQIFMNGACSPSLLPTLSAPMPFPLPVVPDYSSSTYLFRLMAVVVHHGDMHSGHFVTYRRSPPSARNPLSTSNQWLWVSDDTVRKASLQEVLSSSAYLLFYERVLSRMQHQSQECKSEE

| Compound | IC50 |
| --- | --- |
| Cc1cccc(NC(=O)c2nn(C)c3ccccc3c2=O)c1 | 24.6 µM |
| O=C(CCC1CCCCC1)Nc1ccccc1C(=O)N1CCOCC1 | > 50 µM (inactive) |
| Cc1ccc(-n2c(-c3ccccc3)cn3c4c(=O)[nH]c(=O)n(C)c4nc23)cc1Cl | 0.222 µM |
| CCC(=O)Nc1cccnc1-c1ccc(C(=O)Nc2cccc(OC)c2)cc1 | > 50 µM (inactive) |
| Cc1cccc(-c2noc(CCn3c(=O)[nH]c4ccccc4c3=O)n2)c1 | 29.8 µM |
| O=C(NCc1cccc(NC(=O)C2CC2)c1)Nc1cccc2ccccc12 | 21.7 µM |
| COc1cc(C#N)c(NC(=NCc2ccc(F)cc2)SC)cc1OC | 20.5 µM |
| O=C(CSc1nc2ccccc2n1S(=O)(=O)c1ccc(Br)cc1)Nc1ccc([N+](=O)[O-])cc1Cl | 41 µM |
| Cn1c(CN2CCCCCC2)nc2cc(NC(=O)c3ccccc3)ccc21 | > 50 µM (inactive) |
| N#Cc1ccccc1Cn1c(=O)n(CCCCC(=O)NCCc2ccccc2)c(=O)c2ccccc21 | 14.4 µM |
| CC(=O)c1ccc(NC(=O)/C(=C/c2ccco2)n2nnnc2-c2ccccc2)cc1 | > 50 µM (inactive) |
| O=c1c2c(ccn1Cc1cc(F)ccc1F)ccn2Cc1cccnc1 | > 50 µM (inactive) |
| COCCn1ccc2nc(C)c(C(=O)Nc3ccc4c(c3)OCCO4)cc2c1=O | 45.2 µM |
| CN(C)c1cccc(C(=O)Nc2cc(-c3cccnc3)no2)c1 | 16.6 µM |
| CC(=O)Nc1ccc(S(=O)(=O)NCc2ccc(C(=O)NCc3ccc(C)cc3)cc2)cc1 | 26.5 µM |
| O=C(Nc1ccc2nccnc2c1)c1cccc(C(F)(F)F)c1 | > 50 µM (inactive) |
| Cn1c(=O)c(C(=O)CN2CCN(c3ccc(O)cc3)CC2)c(N)n(Cc2ccccc2)c1=O | > 50 µM (inactive) |
| Cc1ccc(NC(=O)c2cc(-c3cccnc3)n(-c3ccccc3)n2)nc1 | 32.3 µM |
| COc1ccc(CNC(=O)CCc2nc3sc4c(c3c(=O)[nH]2)CCCCC4)cc1 | > 50 µM (inactive) |
| CC(C)c1nc2sc3c(NCc4ccco4)ncnc3c2c2c1CCC2 | > 50 µM (inactive) |
| COc1ccc(CC(NC(C)=O)C(=O)NC2CCN(c3c(Cc4ccccc4)c(C)nc4ncnn34)CC2)cc1OC (configuration not stated) | > 50 µM (inactive) |
| COC(=O)c1cc(C#N)c(NCc2ccccc2)nc1C | 10.1 µM |
| COc1ccc(S(=O)(=O)N2CCN3Cc4ccccc4N(C)CC3C2)cc1 (configuration not stated) | > 50 µM (inactive) |
| COc1ccc(C(=O)Nc2ccc3c(c2)C(=O)N(C)c2ccccc2O3)cc1 | > 50 µM (inactive) |
| O=C(COc1ccccc1-c1nnc(-c2ccccc2)o1)Nc1ccc(F)cc1F | 2.16 µM |

| Compound | IC50 |
| --- | --- |
| CC1CCCN1C(=O)c1ccn(-c2ccc3ccc(-c4cccnc4)cn23)n1 (configuration not stated) | > 50 µM (inactive) |
| Cc1ccc(NC(=O)/C=C/c2cccc(C(F)(F)F)c2)c(O)c1 | 5.24 µM |
| COc1ccccc1CNC(=O)Nc1cccc2ccccc12 | 25.9 µM |
| CCCCNc1nc2c(-c3ccccc3)nnn2c2ccccc12 | 1.73 µM |
| Cc1cc(C)c(NC(=O)CSc2nc3nccnc3c(=O)n2Cc2ccccc2Cl)c(C)c1 | 3.88 µM |
| Cc1nc(C(=O)N[C@@H](C)C(=O)NCc2ccc3c(c2)OCO3)cc2c1[nH]c1ccccc12 | > 50 µM (inactive) |
| Cc1cc(C(=O)Nc2ccc3c(c2)OCCO3)no1 | > 50 µM (inactive) |
| Cc1ccc2c(=O)c3c([nH]c2c1C)CCN(CC(=O)NCc1ccccc1)C3 | > 50 µM (inactive) |
| Cn1ncc2c(=O)n(Cc3cccc(Cl)c3)cnc21 | > 50 µM (inactive) |
| O=C(/C=C/c1ccc(F)cc1)Nc1ccc2c(c1)OCCO2 | > 50 µM (inactive) |
| O=C1c2c(O)c(Cl)cc3c2[C@@]2(Oc4cc(Cl)c(O)c5c4[C@]3(O2)[C@@H]2O[C@@H]2C5=O)[C@@H]2O[C@H]12 | 1.1 µM |
| Cn1c(SCc2ccccc2)nnc1-c1csc(-c2ccccc2)n1 | 22.5 µM |
| Fc1cnc(N2CC[C@H]3CO[C@H](CNc4ncccn4)[C@H]3C2)nc1 | > 50 µM (inactive) |
| COc1ccccc1CNC(=O)CCCCn1c(=O)c2ccccc2n(Cc2ccccc2C#N)c1=O | 15.1 µM |
| Cc1nnc(NC(=O)C2CCN(c3ccc(S(N)(=O)=O)cc3[N+](=O)[O-])CC2)o1 | 40.9 µM |
| CN(C)c1ccc(CCN2CCc3nc4cccnc4cc3C2)cc1 | > 50 µM (inactive) |
| CCC(C)NC(=O)Cn1c(=O)n(-c2ccccc2)c(=O)c2ccc(C(=O)NCc3ccco3)cc21 (configuration not stated) | 28.5 µM |
| Cc1cccc(NC(=O)CSc2nnc(-c3n[nH]c4c3CCC4)n2N)c1C | 20.2 µM |
| CCOc1ccc2c(c1)c(=O)c(C(=O)c1ccccc1)cn2CC(=O)Nc1ccc2c(c1)OCCO2 | 21.2 µM |
| O=C(COc1cccc(C(=O)NCc2ccccc2)c1)Nc1ccc(Oc2ccccc2)cc1 | > 50 µM (inactive) |
| CO/C1=C\C(C)=C/[C@@H](C)[C@@H](O)[C@@H](C)C/C(C)=C/C=C/[C@H](OC)[C@@H]([C@@H](C)[C@@H](O)[C@H](C)[C@@]2(O)C[C@@H](OC(=O)/C=C/C(N)=O)[C@H](C)[C@@H](C(C)C)O2)OC1=O | > 50 µM (inactive) |
| O=C(CSc1ccc(-c2cccc([N+](=O)[O-])c2)nn1)Nc1cccc(F)c1 | 2.11 µM |
| CCc1nc(SCC(=O)Nc2ccccc2Cl)c2oc3ccccc3c2n1 | < 0.05 µM |
| COc1ccc(NC(=O)c2nnn(-c3ccccc3C)c2C)cc1OC | > 50 µM (inactive) |
| COc1ccc(N(CC(=O)NC2CCCCC2)C(=O)c2ccc(-c3ccccc3)[nH]2)cc1OC | 2.83 µM |

| Compound | IC50 |
| --- | --- |
| COc1ccc2c(C)c(CC(=O)N3CCC[C@H]3C(=O)O)c(=O)oc2c1C | 45 µM |
| Fc1cccc(-n2cc(-c3noc(-c4ccc[nH]4)n3)nn2)c1 | > 50 µM (inactive) |
| O=C(Nc1ccccc1)c1cn(-c2cc(N3CCCC3)ncn2)cn1 | > 50 µM (inactive) |
| CCOc1ccccc1-c1nc(-c2nnn(Cc3ccccc3)c2C)no1 | > 50 µM (inactive) |
| Cc1ccccc1OCCSc1nc2ccccc2n1CC(=O)NC1CC1 | 15.5 µM |
| Cc1c(-c2ccc(C#N)cc2)oc2ccc(Br)cc2c1=O | 2.57 µM |
| O=C(c1cccnc1)N1CCC2(CC1)CC1(CO2)Nc2ccccc2-n2cccc21 (configuration not stated) | > 50 µM (inactive) |
| COc1ccc(OCCn2c(C3CC(=O)N(c4cccc(C)c4)C3)nc3ccccc32)cc1 (configuration not stated) | 0.356 µM |
| CS(=O)(=O)N1CCCc2cc(C(=O)Nc3ccc4c(c3)OCO4)ccc21 | > 50 µM (inactive) |
| CCC(=O)Nc1ccc2c(c1)nc(CSc1nccc(C)n1)n2CC | > 50 µM (inactive) |
| Cc1c(Cl)cccc1NC(=O)Cn1c(=O)c2ccccc2n2nncc12 | > 50 µM (inactive) |
| Cc1cccc(NC(=O)CN2C(=O)COc3cc(S(=O)(=O)N4CCCC4)ccc32)c1C | 21.4 µM |
| CC(CCc1ccccc1)NC(=O)Cn1c(=O)c2cccn2c2ccccc21 (configuration not stated) | 4.37 µM |
| O=C(NCC(c1cccnc1)N1CCc2ccccc2C1)C(=O)Nc1ccc2c(c1)OCO2 (configuration not stated) | 33.3 µM |
| COc1ccc(-n2ccc(=O)c(-c3nc(-c4ccccc4F)no3)n2)cc1OC | > 50 µM (inactive) |
| O=C(CCc1ccccc1)N(CC1CCCO1)c1nc2ccccc2s1 (configuration not stated) | 37.3 µM |
| CO[C@H]1[C@@H](O)[C@H](C)O[C@H](O[C@H]2[C@H](Oc3cccc4c(O)c5c(=O)oc6ccc(C)c7c(=O)oc(c34)c5c67)O[C@H](C)[C@H](O)[C@@H]2O)[C@@H]1O | > 50 µM (inactive) |
| CC(=O)c1ccc(NC(=O)CSc2nc(-c3ccccc3)nc3c2COC(C)(C)C3)cc1 | 2.77 µM |
| CCOC(=O)c1c(C)oc2nc(CSc3ccccc3)[nH]c(=O)c12 | > 50 µM (inactive) |
| Cc1ccc(C)c(NC(=O)CCc2nc(CSc3nc4ccccc4o3)no2)c1 | 23.8 µM |
| CN1C(=O)[C@]23CC4=CC=C[C@H](O)[C@H]4N2C(=O)[C@@]1(CO)SS3 | 3.78 µM |
| CCCCCn1c(Sc2ccc(C)cc2)nc2c1c(=O)[nH]c(=O)n2C | 11.3 µM |
| Cc1ccc(NCc2cc3c(C(C)(C)C)nn(-c4ccc(Cl)cc4)c3[nH]c2=O)cc1 | > 50 µM (inactive) |
| COc1ccccc1CNC(=O)CCCn1c(=O)c2ccccc2n(CC(=O)N2CCN(c3ccccc3)CC2)c1=O | 34.8 µM |
| O=C(Nc1ccc(F)c(Cl)c1)c1ccc(N2CCCCS2(=O)=O)cc1Cl | > 50 µM (inactive) |

| Compound | IC50 |
| --- | --- |
| CCOc1ccccc1C(=O)NCC(=O)OC(C(=O)c1c[nH]c2ccccc12)c1ccccc1 (configuration not stated) | > 50 µM (inactive) |
| O=C(Cn1c(CSc2ccccc2)nc2ccccc21)Nc1ccccc1F | > 50 µM (inactive) |
| CCOC(=O)c1ccc(NC(=O)c2cnc(N3CCOCC3)nc2)cc1 | > 50 µM (inactive) |
| CSc1ccccc1NC(=O)c1ccc(-n2cccn2)nn1 | 2.32 µM |
| O=C(Cn1nc2c3c4c(sc3ncn2c1=O)CCCCC4)Nc1ccc(Cl)cc1F | 1.49 µM |
| COc1ccc(Cn2c(=O)[nH]c3cc(C(=O)NCCCN4CCN(c5cccc(Cl)c5)CC4)ccc3c2=O)cc1 | 1.92 µM |
| CCOc1cc(N2CCOCC2)c(OCC)cc1NC(=O)c1cc(-c2ccncc2)nc2ccccc12 | 3.68 µM |
| Cc1noc(C)c1COc1cccc(C(=O)Nc2cc(Cl)ccc2-n2cncn2)c1 | > 50 µM (inactive) |
| COc1ccc(C(=O)NCC(c2ccc3c(c2)CCCN3C)N2CCCC2)cc1 (configuration not stated) | > 50 µM (inactive) |
| O=C(Nc1ccc2c(c1)OCCO2)C1CCN(C(=O)c2cc(-c3cccnc3)n[nH]2)CC1 | > 50 µM (inactive) |
| O=C(Nc1ccccc1)C1CCCN(C(=O)c2cc3ccccc3[nH]2)C1 (configuration not stated) | 25.3 µM |
| c1csc(-c2nc(Nc3ccc4c(c3)CCC4)c3ccccc3n2)c1 | 4.91 µM |
| Nc1ccccc1SC(CC(=O)c1ccc(Cl)cc1)c1ccsc1 (configuration not stated) | > 50 µM (inactive) |
| COc1ccc(-c2nc(-c3nnn(Cc4ccc(F)cc4)c3C)no2)c(OC)c1 | 8.97 µM |
| O=C(NCc1ccccc1Cl)c1ccc(-c2nnc(-c3ccccc3)o2)cc1 | 1.52 µM |
| CC(C)OC(=O)c1cc2c(ccn2-c2ccc(F)cc2)n1CC(=O)NC1CCCCC1 | > 50 µM (inactive) |
| O=C(Cn1c(NCc2ccccc2)nc2ccccc21)NCC(F)(F)F | 33.1 µM |
| O=c1c(Nc2cccc(F)c2)nc2ccncc2n1Cc1ccccc1 | 26.4 µM |
| CC1=C(C)C(c2c(-c3ccc(C)cc3)[nH]c3ccccc23)N(C(C)(C)C)C1=O (configuration not stated) | 1.85 µM |
| COc1ccc(OC)c(-c2c(C#N)c(C)nc3c2N2CCC3CC2)c1 | 24.1 µM |
| Cc1cccc(O)c1-c1nc2c(-c3nc4c(C(=O)O)cccc4o3)cccc2o1 | > 50 µM (inactive) |
| COc1ccc(CCNC(=O)CCn2c(=O)c3ccccc3n(Cc3ccc(C)cc3)c2=O)cc1OC | 25.4 µM |
